Reference: patent US12472160B2, “Modified-release tiopronin compositions, kits and methods for treating cystinuria and related disorders” (ALTIBIO, INC., priority 2017, dated 2025)
Each block holds one compound with its values, some of them ahead of it.

Assays:
[1] = cited from earlier work
[2] = cited from earlier work; remark: listed apart in the source
[3] = Stability of tiopronin in Beagle dog urine; format: in vitro ADME
Description: (§1) Samples were considered stable if their concentrations were within ±20% of nominal. These samples met acceptable criteria for stability and results are presented below, in Tables 5, 6, and 7, showing the % tiopronin remaining in Beagle dog plasma (Table 5), plasma supernatant (Table 6), and urine (Table 7).
as §1, with “12, 13,” for “5, 6,”, “14,” for “7,”, “12),” for “5),”, “13),” for “6),”, “14).” for “7).”

[4] = Stability of tiopronin in Beagle dog plasma supernatant (pre-crashed plasma); format: in vitro ADME
Method: (§2) Stability Testing: Finally, short term and long term stability of tiopronin in beagle dog plasma, pre-crashed plasma (plasma supernatant), and urine were assessed using two tiopronin concentrations (50 ng/mL or 500 ng/mL) under each of the following two conditions: (1) storage on the bench top for 4 hours and (2) frozen at −80° C. for up to one month. Samples were considered stable if their concentrations were within ±20% of nominal. These samples met acceptable criteria for stability and results are presented below, in Tables 5, 6, and 7, showing the % tiopronin remaining in Beagle dog plasma (Table 5), plasma supernatant (Table 6), and urine (Table 7).
as §2, with “12, 13,” for “5, 6,”, “14,” for “7,”, “12),” for “5),”, “13),” for “6),”, “14).” for “7).”

[5] = Total and free plasma tiopronin and urinary tiopronin recovery in Beagle dogs after intraduodenal administration (Example 5); format: in vivo
Method: The objective of this study was to evaluate total and free plasma tiopronin, and total urinary tiopronin, in an animal model (male Beagle dogs) following intraduodenal administration of tiopronin, to determine whether small intestine administration, would improve drug pharmacokinetics. Specifically, tiopronin formulations were administered to deliver 30 mg/kg per dog via single dose; and blood and urine samples then collected at different times post-dose.
Tiopronin formulations were administered to provide 30 mg/kg per dog as one single intraduodenal dose. Following administration, blood and urine samples were collected at the time points, or over the time intervals, indicated below.
(§3) Preparation of Dosing Formulations: Capsules were prepared and filled on the day of dosing, as follows. Tiopronin was dry mixed with avicel and mannitol to make a 40:30:30 mixture of tiopronin to avicel to mannitol, respectively. The dry mixes were custom filled with the appropriate amount of powder to deliver the specified doses to each dog based, on their respective body weights.
(§4) Animal Dosing and Sample Collection: This non-clinical study followed established practices and standard operating procedures of Absorption Systems and Absorption Systems Inc., as well as the study protocol. Study groups each included three dogs. The dogs were housed one per cage. The dogs were fasted for at least sixteen hours prior to each administration of the formulation. Food was given approximately eight hours post initial dosing. Animals had free access to water throughout the study.
Intraduodenal (ID) administration: Animals were anesthetized by a slow IV infusion of Propofol (6-10 mg/kg) or with an intramuscular injection of a cocktail containing ketamine (approximately 10-20 mg/kg), diazepam (3 mg/kg), and acepromazine (0.05 mg/kg) given IM about 5-10 minutes before intubation. Once animals were confirmed adequately anesthetized they were intubated and maintained using isoflurane (approximately 1-5% in oxygen 1 to 4 L/min) as necessary until dosing is complete. Formulations were administered into the proximal duodenum via endoscopic guidance to verify the dosing site. The endoscope first was maneuvered into the pyloric sphincter with camera visualization of the proximal duodenum. Once there was confirmation that the endoscope was placed between the pylorus and proximal duodenum, the test article was delivered to the proximal duodenum followed by a 5 mL flush. Upon completion of the dosing, the animals were taken off the isoflurane and allowed to recover from anesthesia. Time points began upon completion of the entire dose procedure. Following each blood sampling time point, 15 mL of water was given to each dog via syringe. […]

[6] = Total and free plasma tiopronin and urinary tiopronin recovery in Beagle dogs after oral dosing by four regimens (Example 4); format: in vivo; details: for % of the dose (unchanged drug) found in urine / maximum plasma concentrations of free tiopronin / maximum plasma concentrations of total tiopronin: average, n=3 dogs; for free (unbound) tiopronin in plasma over time: FIG. 12
Method: The objective of this study was to evaluate total and free plasma tiopronin, and total urinary tiopronin, in an animal model (male Beagle dogs) following oral administration of tiopronin, according to various dose regimens, to determine whether different regimens, simulating modified release, would improve drug pharmacokinetics. Specifically, tiopronin formulations were administered to deliver 30 mg/kg per dog via single or multiple doses divided over a 12-hour period; and blood and urine samples then collected at different times post-dose.
Tiopronin formulations were administered to provide 30 mg/kg per dog according to four different dosage regimes (Leg 1, Leg 2, Leg 3, and Leg 4), as set forth in the table below. Leg 2, Leg 3, and Leg 4 (also referred to as Q6H, Q3H, and Q2H respectively) were designed to simulate modified-release formulations, in accordance with certain embodiments of the present invention. Following administration, blood and urine samples were collected at the time points, or over the time intervals, also as indicated below.
as §3, with “Capsules for Legs 1-4” for “Capsules”, “For Legs 1 and 2, tiopronin” for “Tiopronin”, “respectively; for study Legs 3 and 4, a 20:40:40 mixture of tiopronin to avicel to mannitol, respectively, was prepared.” for “respectively.”
as §4, with “six” for “sixteen”, “ten” for “eight”
Following dosing, blood and urine samples were collected according to the schedule in Table 1.
Blood samples were collected via direct venipuncture of the jugular vein or other accessible vein of the dog, and placed in chilled polypropylene tubes containing sodium heparin as an anticoagulant. Samples were maintained chilled throughout processing. Blood samples were centrifuged at 4° C. and 3,000 rpm (revolutions per minute) for 5 minutes. The first aliquot of plasma was precipitated with methanol by combining 200 μL of plasma with 600 μL of methanol in a centrifuge tube. The samples were mixed, centrifuged at 3,000 rpm for 5 minutes. The resulting supernatant was decanted into clean, labeled polypropylene tubes. The remaining plasma volume was transferred to a chilled, labeled polypropylene tube, placed on dry ice, and stored in a freezer maintained at −60° C. to −80° C. Following taking each blood sample, 15 mL of water was given to the dog via syringe.
For study Leg 1, pre-dose urine samples were collected via free catch approximately 2 hours pre-dose. For study Legs 2, 3 and 4, pre-dose urine samples were collected via catheter approximately 2 hours pre-dose. Other urine samples were collected via free catch in the cages during the indicated interval, collected into clean bottles, and kept on cold packs. Cold packs were replenished as needed during the day. At the end of each interval, the total volume of urine was collected and recorded. Each sample was well mixed and divided into two aliquots: an approximately 5 mL first aliquot, and a second aliquot of the remaining volume. Additionally, for Leg 4 only, each dog received a 60 mL subcutaneous injection of saline (2×30 mL injections at two different sites) approximately 30 minutes prior to dosing and, if urine was not present in the animal's cage at the end of the final collection interval, the final urine sample was collected by catheter. […]

[7] = Stability of tiopronin in Beagle dog plasma; format: in vitro ADME
Method: as §2
as §2, with “12, 13,” for “5, 6,”, “14,” for “7,”, “12),” for “5),”, “13),” for “6),”, “14).” for “7).”

cystinuria patients = details: cited from earlier work
[8] = 50 ng/mL (low), bench top (RT) for 4 hours
[9] = 50 ng/mL (low), −80° C. freezer for 1 week
[10] = 500 ng/mL (high), bench top (RT) for 4 hours
[11] = 500 ng/mL (high), −80° C. freezer for 1 week
[12] = intraduodenal single 30 mg/kg dose, average, n=3 dogs
[13] = Leg 1 (Q12H): PO single 30 mg/kg dose
[14] = Leg 2 (Q6H): PO two 15 mg/kg doses at 0 and 6 h
[15] = Leg 3 (Q3H): PO four 7.5 mg/kg doses at 0, 3, 6, 9 h
[16] = Leg 4: PO six 5 mg/kg doses at 0, 2, 4, 6, 8, 10 h

Structure (SMILES): CC(C)(S)[C@@H](N)C(=O)O [D-penicillamine]
solubility of di-sulfide complex relative to cystine [1]: 50 times
patients with severe side effects limiting use / who cannot tolerate the drug ([2]; human, in vivo): 50-70%
bioavailability ([2]; patients with malabsorption states, presence of antacids, or after a large meal): dramatically decreases

% Tiopronin Remaining in Beagle Dog Urine ([3]; High (2500 ng/mL), bench top (RT) for 4 hours): 84.9%
% Tiopronin Remaining in Beagle Dog Urine ([3]; High (2500 ng/mL), −80° C. freezer for 1 week): 107%
% Tiopronin Remaining in Beagle Dog Urine ([3]; High (2500 ng/mL), −80° C. freezer for 2 week): 90.9%
% Tiopronin Remaining in Beagle Dog Urine ([3]; High (2500 ng/mL), −80° C. freezer for 4 week): 96.6%
% Tiopronin Remaining in Beagle Dog Urine ([3]; Low (250 ng/mL), bench top (RT) for 4 hours): 113%
% Tiopronin Remaining in Beagle Dog Urine ([3]; Low (250 ng/mL), −80° C. freezer for 1 week): 106%
% Tiopronin Remaining in Beagle Dog Urine ([3]; Low (250 ng/mL), −80° C. freezer for 2 week): 119%
% Tiopronin Remaining in Beagle Dog Urine ([3]; Low (250 ng/mL), −80° C. freezer for 4 week): 112%
% Tiopronin Remaining in Beagle Dog Plasma Supernatant [4, 8]: 113%
% Tiopronin Remaining in Beagle Dog Plasma Supernatant [4, 9]: 118%
% Tiopronin Remaining in Beagle Dog Plasma Supernatant ([4]; 50 ng/mL (low), −80° C. freezer for 2 week): 105%
% Tiopronin Remaining in Beagle Dog Plasma Supernatant ([4]; 50 ng/mL (low), −80° C. freezer for 4 week): 113%
% Tiopronin Remaining in Beagle Dog Plasma Supernatant [4, 10]: 105%
% Tiopronin Remaining in Beagle Dog Plasma Supernatant [4, 11]: 112%
% Tiopronin Remaining in Beagle Dog Plasma Supernatant ([4]; 500 ng/mL (high), −80° C. freezer for 2 week): 105%
% Tiopronin Remaining in Beagle Dog Plasma Supernatant ([4]; 500 ng/mL (high), −80° C. freezer for 4 week): 116%
% of the dose (unchanged drug) found in urine ([5]; ID single 30 mg/kg dose, average, n=3 dogs): 30.5±19.9%
maximum plasma concentrations of free tiopronin [5, 12]: 1643 ± 105 ng/mL
maximum plasma concentrations of total tiopronin [5, 12]: 8640 ± 5522 ng/mL
urinary recovery of tiopronin, small intestine vs oral administration ([5]; single 30 mg/kg dose, FIG. 16): better tiopronin recovery in urine
% of the dose (unchanged drug) found in urine [6, 13]: 19.9±8.51%
maximum plasma concentrations of free tiopronin [6, 13]: 11063 ± 3598 ng/mL
maximum plasma concentrations of total tiopronin [6, 13]: 27900 ± 8122 ng/mL
maximum plasma concentrations of total tiopronin ([6]; Leg 2 (Q6H): PO 30 mg/kg as two 15 mg/kg doses at 0 and 6 h): 23833 ± 5829 ng/mL
% of the dose (unchanged drug) found in urine [6, 14]: 37.5±14.5%
maximum plasma concentrations of free tiopronin [6, 14]: 8177 ± 2237 ng/mL
maximum plasma concentrations of total tiopronin ([6]; Leg 3 (Q3H): PO 30 mg/kg as four 7.5 mg/kg doses at 0, 3, 6, 9 h): 10437 ± 1201 ng/mL
% of the dose (unchanged drug) found in urine [6, 15]: 50.6±14.0%
maximum plasma concentrations of free tiopronin [6, 15]: 3143 ± 624 ng/mL
maximum plasma concentrations of total tiopronin ([6]; Leg 4: PO 30 mg/kg as six 5 mg/kg doses at 0, 2, 4, 6, 8, 10 h): 10297 ± 2199 ng/mL
time of maximum plasma concentrations of free tiopronin [6, 16]: 3 hours post dosing
% of the dose (unchanged drug) found in urine [6, 16]: 32.7±5.90%
maximum plasma concentrations of free tiopronin [6, 16]: 2323 ± 589 ng/mL
free (unbound) tiopronin in plasma over time ([6]; Legs 3 and 4 (Q3H and Q2H)): maintained
urinary recovery of tiopronin, comparison of four dosing schedules ([6]; Q3H vs Q12H, Q6H, Q2H, FIG. 13): best tiopronin recovery in urine
% Tiopronin Remaining in Beagle Dog Plasma [7, 8]: 109%
% Tiopronin Remaining in Beagle Dog Plasma [7, 9]: 110%
% Tiopronin Remaining in Beagle Dog Plasma ([7]; 50 ng/mL (low), −80° C. freezer for 2 weeks): 112%
% Tiopronin Remaining in Beagle Dog Plasma ([7]; 50 ng/mL (low), −80° C. freezer for 4 weeks): 95.6%
% Tiopronin Remaining in Beagle Dog Plasma [7, 10]: 87.0%
% Tiopronin Remaining in Beagle Dog Plasma [7, 11]: 95.4%
% Tiopronin Remaining in Beagle Dog Plasma ([7]; 500 ng/mL (high), −80° C. freezer for 2 weeks): 92.8%
% Tiopronin Remaining in Beagle Dog Plasma ([7]; 500 ng/mL (high), −80° C. freezer for 4 weeks): 90.4%
Structure (SMILES): CC(S)C(=O)NCC(=O)O (stereo not drawn) [tiopronin, alpha-mercaptopropionylglycine]
free (unbound) tiopronin in plasma over time ([6]; Legs 1 and 2 (Q12H and Q6H)): disappear from the plasma after a short period of time
cases/patients in which the drug is discontinued (cystinuria patients; due to adverse reactions, need for frequent dosing, poor efficacy (Pak et al., 1986)): about 30%
cystinuria patients in whom medication fails (continue forming stones) (cystinuria patients; human, in vivo): 85%
